# Assay results taken from patent publication US20260070945A1, “MACROCYCLIC IMMUNOMODULATORS” (Bristol-Myers Squibb Company, priority 2022, published 2026).
# Where a SMILES comes first, the peptide text is derived from it. Bridges are numbered along the chain shown (N, C = ends). [ ]: non-standard residue; d: D form. The star is where a group is joined. Phe(4-CH2CH2COOH) = N[C@@H](Cc1ccc(CCC(=O)O)cc1)C(=O)O; Phe(3-CF3) = N[C@@H](Cc1cccc(C(F)(F)F)c1)C(=O)O; Phe(4-CF3) = N[C@@H](Cc1ccc(C(F)(F)F)cc1)C(=O)O; Phe(4-COOH) = N[C@@H](Cc1ccc(C(=O)O)cc1)C(=O)O; Bip = N[C@@H](Cc1ccc(-c2ccccc2)cc1)C(=O)O; NH(CH2)14COOH = O=C(O)CCCCCCCCCCCCCCN*; NH(CH2)12COOH = O=C(O)CCCCCCCCCCCCN*; Val(3-OH) = CC(C)(O)[C@H](N)C(=O)O; Cha = N[C@@H](CC1CCCCC1)C(=O)O; Carboxymethyl = O=C(O)C*; NMeA = CN[C@@H](C)C(=O)O; Dab = NCC[C@H](N)C(=O)O; AEEA = NCCOCCOCC(=O)O
# Molecular target: T1, PD-1/PD-L1 interaction (PE-labeled human PD-L1-Ig binding to Jurkat cell line over-expressing human PD-1) (Homo sapiens, UniProt Q15116)
# T1 construct: expressed in transfected cells; host or cells: Jurkat
# Assay: Jurkat-PD-1 Cell Binding High-Content Screening Assay (CBA)
# Conditions: PE-labeled PD-L1-Ig 20 nM final, Jurkat-hPD-1 cells; read-out: Jurkat HPD1 PDL1 IC50
# In short: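 Read-out: high-content imaging of cell-bound PE fluorescence, with Hoechst 33342 nuclear counterstain after paraformaldehyde fixation. Before labeled ligand (20 nM final, 1 h) was added, compound sat on the cells for 2 h at 37 °C in DMEM/10% FCS.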
# T1 sequence (Q15116 25-288): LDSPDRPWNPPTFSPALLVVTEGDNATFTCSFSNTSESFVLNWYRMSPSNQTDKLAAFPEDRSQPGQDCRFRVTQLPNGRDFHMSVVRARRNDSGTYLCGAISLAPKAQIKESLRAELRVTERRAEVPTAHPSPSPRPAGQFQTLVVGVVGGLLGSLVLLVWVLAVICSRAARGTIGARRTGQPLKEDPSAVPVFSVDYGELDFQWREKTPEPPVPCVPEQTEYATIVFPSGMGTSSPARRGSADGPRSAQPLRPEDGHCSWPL
row,Compound,IC50
1,CC(=O)NCCCC[C@@H]1NC(=O)[C@H](C(C)(C)O)NC(=O)[C@H](CC2CCCCC2)NC(=O)[C@H](CCN)NC(=O)[C@@H](CC(C)C)NC(=O)[C@H](C)N(C)C(=O)[C@H](CCC(N)=O)NC(=O)[C@H](Cc2ccc(-c3ccccc3)cc2)NC(=O)[C@H](Cc2ccc(CCC(=O)O)cc2)NC(=O)[C@H](Cc2cccc(C(F)(F)F)c2)NC(=O)[C@H](CC(=O)O)NC(=O)[C@H](Cc2ccc(OCC(=O)O)cc2)NC(=O)[C@H](Cc2ccc(OCC(=O)O)cc2)NC(=O)CSC[C@@H](C(=O)N[C@@H](CCN)C(=O)NCCCCCCCCCCCCCCC(=O)O)NC1=O [Example 2607] ({CH2CO}-Y(Carboxymethyl)Y(Carboxymethyl)D[Phe(3-CF3)][Phe(4-CH2CH2COOH)][Bip]Q[NMeA][dL][Dab][Cha][Val(3-OH)]K(Ac)C[Dab]-{NH(CH2)14COOH}; thioether N-14),0.0351 µM
2,CC(=O)NCCCC[C@@H]1NC(=O)[C@H](C(C)(C)O)NC(=O)[C@H](CC2CCCCC2)NC(=O)[C@H](CCN)NC(=O)[C@@H](CC(C)C)NC(=O)[C@H](C)N(C)C(=O)[C@H](CCC(N)=O)NC(=O)[C@H](Cc2ccc(-c3ccccc3)cc2)NC(=O)[C@H](Cc2ccc(C(=O)O)cc2)NC(=O)[C@H](Cc2cccc(C(F)(F)F)c2)NC(=O)[C@H](CC(=O)O)NC(=O)[C@H](Cc2ccc(OCC(=O)O)cc2)NC(=O)[C@H](Cc2ccc(OCC(=O)O)cc2)NC(=O)CSC[C@@H](C(=O)N[C@@H](CCN)C(=O)NCCOCCOCC(=O)NCCOCCOCC(=O)NCCCCCCCCCCCCCCC(=O)O)NC1=O [Example 2608] ({CH2CO}-Y(Carboxymethyl)Y(Carboxymethyl)D[Phe(3-CF3)][Phe(4-COOH)][Bip]Q[NMeA][dL][Dab][Cha][Val(3-OH)]K(Ac)C[Dab][AEEA][AEEA]-{NH(CH2)14COOH}; thioether N-14),0.168 µM
3,CC(=O)NCCCC[C@@H]1NC(=O)[C@H](C(C)(C)O)NC(=O)[C@H](CC2CCCCC2)NC(=O)[C@H](CCN)NC(=O)[C@@H](CC(C)C)NC(=O)[C@H](C)N(C)C(=O)[C@H](CCC(N)=O)NC(=O)[C@H](Cc2ccc(-c3ccccc3)cc2)NC(=O)[C@H](Cc2ccc(C(=O)O)cc2)NC(=O)[C@H](Cc2cccc(C(F)(F)F)c2)NC(=O)[C@H](CC(=O)O)NC(=O)[C@H](Cc2ccc(OCC(=O)O)cc2)NC(=O)[C@H](Cc2ccc(C(F)(F)F)cc2)NC(=O)CSC[C@@H](C(=O)N[C@@H](CCN)C(=O)NCCOCCOCC(=O)NCCOCCOCC(=O)NCCCCCCCCCCCCCCC(=O)O)NC1=O [Example 2610] ({CH2CO}-[Phe(4-CF3)]Y(Carboxymethyl)D[Phe(3-CF3)][Phe(4-COOH)][Bip]Q[NMeA][dL][Dab][Cha][Val(3-OH)]K(Ac)C[Dab][AEEA][AEEA]-{NH(CH2)14COOH}; thioether N-14),0.35 µM
4,CC(=O)NCCCC[C@@H]1NC(=O)[C@H](C(C)(C)O)NC(=O)[C@H](CC2CCCCC2)NC(=O)[C@H](CCN)NC(=O)[C@@H](CC(C)C)NC(=O)[C@H](C)N(C)C(=O)[C@H](CCC(N)=O)NC(=O)[C@H](Cc2ccc(-c3ccccc3)cc2)NC(=O)[C@H](Cc2ccc(C(=O)O)cc2)NC(=O)[C@H](Cc2cccc(C(F)(F)F)c2)NC(=O)[C@H](CC(=O)O)NC(=O)[C@H](Cc2ccc(OCC(=O)O)cc2)NC(=O)[C@H](Cc2ccc(C(F)(F)F)cc2)NC(=O)CSC[C@@H](C(=O)N[C@@H](CCN)C(=O)NCCOCCOCC(=O)NCCCCCCCCCCCCC(=O)O)NC1=O [Example 2611] ({CH2CO}-[Phe(4-CF3)]Y(Carboxymethyl)D[Phe(3-CF3)][Phe(4-COOH)][Bip]Q[NMeA][dL][Dab][Cha][Val(3-OH)]K(Ac)C[Dab][AEEA]-{NH(CH2)12COOH}; thioether N-14),0.06 µM
